Reference: patent US11919908B2, “Substituted pyrrolo[2,3-d]pyrimidine compounds as JAK2 V617F inhibitors” (Incyte Corporation, priority 2020, dated 2024)

Legend:
[1] = molecular target: T1, pseudo-kinase domain (JH2) of human V617F mutant JAK2 (Homo sapiens, UniProt O60674, F794H/V617F/W659A/W777A); assay: JAK2 LanthaScreen JH2-V617F Binding Assay; details: 50 nM Fluorescent JAK2-JH2 Tracer, 1 hour at 25° C.
T1 construct: pseudo-kinase domain (JH2, amino-acids 536-812 with 3 surface mutations W659A, W777A, F794H); His (C); purchased BPS Bioscience 79498; host or cells: baculovirus expression system
Procedure: (§1) Example C. JAK2 LanthaScreen JH2-V617F Binding Assay JAK2 JH2-V617F binding assay utilizes pseudo-kinase domain (JH2, amino-acids 536-812 with 3 surface mutations […]) of human V617F mutant JAK2 expressed as C-terminal His-Avi-tagged, biotinylated protein in a baculovirus expression system (BPS Bioscience, Catalog #79498). The assay was conducted in black 384-well polystyrene plates in a final reaction volume of 20 μL. JAK2 JH2-V617F (0.26 nM) was incubated with compounds (100 nL serially diluted in DMSO) in the presence of 50 nM Fluorescent JAK2-JH2 Tracer (MedChem Express Catalog #HY-102055) and 0.25 nM Streptavidin-Tb cryptate (Cisbio Part #610SATLB) in assay buffer (50 mM Tris, pH=7.5, 10 mM MgCl2, 0.01% Brij-35, 0.1% BSA, 1 mM EGTA, 5% Glycerol and 5 mM DTT). Non-specific binding was accessed in the presence of 2 mM ATP. After incubation for 1 hour at 25° C., LanthaScreen signals were read on a PHERAstar FS plate reader (BMG LABTECH). Data was analyzed with IDBS XLfit and GraphPad Prism 5.0 software using a four parameter dose response curve to determine IC50 for each compound.

[2] = molecular target: T2, pseudo-kinase domain (JH2) of human Wild Type JAK2 (Homo sapiens, UniProt O60674, F794H/W659A/W777A); assay: JAK2 LanthaScreen JH2-WT Binding Assay; details: 50 nM Fluorescent JAK2-JH2 Tracer, 1 hour at 25° C.
T2 construct: pseudo-kinase domain (JH2, amino-acids 536-812 with 3 surface mutations W659A, W777A, F794H); His (C); purchased BPS Bioscience 79463; host or cells: baculovirus expression system
Procedure: as §1, with “Example B.” for “Example C.”, “LanthaScreen JH2-WT” for “LanthaScreen JH2-V617F”, “JAK2 JH2-WT” for “JAK2 JH2-V617F”, “human Wild Type” for “human V617F mutant”, “Catalog #79463).” for “Catalog #79498).”, “JAK2 JH2-WT (0.145” for “JAK2 JH2-V617F (0.26”

[3] = molecular target: T3, catalytic domain (JH1) of human JAK2 (Homo sapiens, UniProt O60674); assay: JAK2 LanthaScreen JH1 Binding Assay; details: 50 nM Fluorescent JAK2-JH1 Tracer, 2 hours at 25° C.
T3 construct: catalytic domain (JH1, amino acids 826-1132) of human JAK2; FLAG (N); purchased Carna Biosciences 08-445-20N; host or cells: baculovirus expression system
Procedure: Example A. JAK2 LanthaScreen […] Binding Assay JAK2 JH1 binding assay utilizes catalytic domain (JH1, amino acids 826-1132) of human JAK2 expressed as N-terminal FLAG-tagged, biotinylated protein in a baculovirus expression system (Carna Biosciences, Product #08-445-20N). The assay was conducted in black 384-well polystyrene plates in a final reaction volume of 20 μL. JAK2 JH1 (1.5 nM) was incubated with compounds (100 nL serially diluted in DMSO) in the presence of 50 nM Fluorescent JAK2-JH1 Tracer and 0.5 nM Streptavidin-Tb cryptate (Cisbio Part #610SATLB) in assay buffer (50 mM Tris, pH=7.5, 10 mM MgCl2, 0.01% Brij-35, 0.1% BSA, 1 mM EGTA, 5% Glycerol and 5 mM DTT). Non-specific binding was accessed in the presence of 2 mM ATP. After incubation for 2 hours at 25° C., LanthaScreen signals were read on a PHERAstar FS plate reader (BMG LABTECH). Data was analyzed with IDBS XLfit and GraphPad Prism 5.0 software using a four parameter dose response curve to determine IC50 for each compound.

T3 sequence (O60674 826-1132): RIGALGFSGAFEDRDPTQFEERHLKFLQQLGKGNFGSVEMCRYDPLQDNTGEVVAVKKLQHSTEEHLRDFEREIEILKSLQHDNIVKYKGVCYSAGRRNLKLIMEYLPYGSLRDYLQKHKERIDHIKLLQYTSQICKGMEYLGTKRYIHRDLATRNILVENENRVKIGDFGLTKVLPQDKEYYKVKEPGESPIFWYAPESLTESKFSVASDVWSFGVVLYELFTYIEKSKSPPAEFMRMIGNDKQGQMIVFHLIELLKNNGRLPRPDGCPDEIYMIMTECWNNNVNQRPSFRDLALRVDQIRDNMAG
T2 sequence (O60674 536-812 W659A/W777A/F794H): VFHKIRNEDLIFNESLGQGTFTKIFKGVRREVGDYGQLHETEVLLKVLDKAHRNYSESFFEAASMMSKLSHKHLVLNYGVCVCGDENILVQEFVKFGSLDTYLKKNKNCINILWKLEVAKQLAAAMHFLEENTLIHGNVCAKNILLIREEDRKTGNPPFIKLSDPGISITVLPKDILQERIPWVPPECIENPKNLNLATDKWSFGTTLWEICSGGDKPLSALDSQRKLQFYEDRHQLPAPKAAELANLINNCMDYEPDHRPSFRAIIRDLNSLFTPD
T1 sequence (O60674 536-812 V617F/W659A/W777A/F794H): as the sequence (O60674 536-812 W659A/W777A/F794H) above, with V82F counted along it

COc1ccccc1-c1c(-c2ccccc2)[nH]c2nc(N)[nH]c(=O)c12 [Example 57, 2-Amino-5-(2-methoxyphenyl)-6-phenyl-3,7-dihydro-4H-pyrrolo [2,3-d]pyrimidin-4-one]
IC50 [1]: 1000 to 2500 nM | IC50 [2]: 1000 to 2500 nM | IC50 [3]: > 2500 nM

CN(C)S(=O)(=O)c1ccc(-c2[nH]c3nc(N)[nH]c(=O)c3c2-c2ccccc2CC#N)cc1 [Example 15, 4-(2-Amino-5-(2-(cyanomethyl)phenyl)-4-oxo-4,7-dihydro-3H-pyrrolo[2,3-d]pyrimidin-6-yl)-N,N-dimethylbenzene sulfonamide]
IC50 [1]: > 2500 nM | IC50 [2]: > 2500 nM | IC50 [3]: > 2500 nM

Cc1cccc(-c2c(-c3cccc(C(=O)N(C)C)c3)[nH]c3nc(N)[nH]c(=O)c23)c1 [Example 61, 3-(2-Amino-4-oxo-5-(3-tolyl)-4,7-dihydro-3H-pyrrolo [2,3-d]pyrimidin-6-yl)-N,N-dimethyl-benzamide]
IC50 [1]: 1000 to 2500 nM | IC50 [2]: 1000 to 2500 nM | IC50 [3]: > 2500 nM

COc1ccc(Cl)cc1-c1c(-c2ccc(S(=O)(=O)N(C)C)cc2)[nH]c2nc(N)[nH]c(=O)c12 [Example 27, 4-(2-Amino-5-(5-chloro-2-methoxyphenyl)-4-oxo-4,7-dihydro-3H-pyrrolo[2,3-d]pyrimidin-6-yl)-N,N-dimethylbenzene sulfonamide]
IC50 [1]: > 2500 nM | IC50 [2]: 1000 to 2500 nM | IC50 [3]: > 2500 nM

CN(C)S(=O)(=O)c1ccc(-c2[nH]c3nc(N)[nH]c(=O)c3c2-c2cccc3c2OCCC3)cc1 [Example 10, 4-(2-Amino-5-(chroman-8-yl)-4-oxo-4,7-dihydro-3H-pyrrolo[2,3-d]pyrimidin-6-yl)-N,N-dimethylbenzene sulfonamide]
IC50 [1]: 500 to 1000 nM | IC50 [2]: 500 to 1000 nM | IC50 [3]: > 2500 nM

CN(C)S(=O)(=O)c1ccc(-c2[nH]c3nc(N)[nH]c(=O)c3c2-c2cnn(Cc3ccccc3)c2)cc1 [Example 30, 4-(2-Amino-5-(1-benzyl-1H-pyrazol-4-yl)-4-oxo-4,7-dihydro-3H-pyrrolo[2,3-d]pyrimidin-6-yl)-N,N-dimethylbenzene sulfonamide]
IC50 [1]: > 2500 nM | IC50 [2]: > 2500 nM | IC50 [3]: > 2500 nM

CN(C)S(=O)(=O)c1ccc(-c2[nH]c3nc(N)[nH]c(=O)c3c2-c2ccc(C(=O)O)cc2)cc1 [Example 35, 4-(2-amino-6-(4-(N,N-dimethylsulfamoyl)phenyl)-4-oxo-4,7-dihydro-3H-pyrrolo[2,3-d]pyrimidin-5-yl)benzoic acid]
IC50 [1]: 100 to 500 nM | IC50 [2]: 100 to 500 nM | IC50 [3]: 500 to 1000 nM

CCOc1ccccc1-c1c(-c2ccc(S(=O)(=O)N(C)C)cc2)[nH]c2nc(N)[nH]c(=O)c12 [Example 70, 4-(2-Amino-5-(2-ethoxyphenyl)-4-oxo-4,7-dihydro-3H-pyrrolo[2,3-d]pyrimidin-6-yl)-N,N-dimethylbenzenesulfonamide]
IC50 [1]: 1000 to 2500 nM | IC50 [2]: 1000 to 2500 nM | IC50 [3]: > 2500 nM

CN(C)S(=O)(=O)c1ccc(-c2[nH]c3nc(N)[nH]c(=O)c3c2-c2cccc(C(=O)O)c2)cc1 [Example 34, 3-(2-amino-6-(4-(N,N-dimethylsulfamoyl)phenyl)-4-oxo-4,7-dihydro-3H-pyrrolo[2,3-d]pyrimidin-5-yl)benzoic acid]
IC50 [1]: 100 to 500 nM | IC50 [2]: 100 to 500 nM | IC50 [3]: > 2500 nM

CCc1c(-c2ccccc2)[nH]c2nc(N)[nH]c(=O)c12 [Example 55, 2-Amino-5-ethyl-6-phenyl-3,7-dihydro-4H-pyrrolo[2,3-d]pyrimidin-4-one]
IC50 [1]: > 2500 nM | IC50 [2]: > 2500 nM | IC50 [3]: > 2500 nM

CN(C)S(=O)(=O)c1ccc(-c2[nH]c3nc(N)[nH]c(=O)c3c2-c2ccccc2OC(F)F)cc1 [Example 19, 4-(2-Amino-5-(2-(difluoromethoxy)phenyl)-4-oxo-4,7-dihydro-3H-pyrrolo[2,3-d]pyrimidin-6-yl)-N,N-dimethylbenzene sulfonamide]
IC50 [1]: 1000 to 2500 nM | IC50 [2]: > 2500 nM | IC50 [3]: > 2500 nM

CN(C)S(=O)(=O)c1ccc(-c2[nH]c3nc(N)[nH]c(=O)c3c2-c2cccc(C#N)c2)cc1 [Example 17, 4-(2-Amino-5-(3-cyanophenyl)-4-oxo-4,7-dihydro-3H-pyrrolo [2,3-d]pyrimidin-6-yl)-N,N-dimethyl-benzene sulfonamide]
IC50 [1]: 500 to 1000 nM | IC50 [2]: 500 to 1000 nM | IC50 [3]: 100 to 500 nM

CN(C)S(=O)(=O)c1ccc(-c2[nH]c3nc(N)[nH]c(=O)c3c2-c2cnn(Cc3ccncc3)c2)cc1 [Example 32, 4-(2-Amino-4-oxo-5-(1-(pyridin-4-ylmethyl)-1H-pyrazol-4-yl)-4,7-dihydro-3H-pyrrolo[2,3-d]pyrimidin-6-yl)-N,N-dimethylbenzene sulfonamide]
IC50 [1]: 1000 to 2500 nM | IC50 [2]: 1000 to 2500 nM | IC50 [3]: > 2500 nM

CN(C)S(=O)(=O)c1ccc(-c2[nH]c3nc(N)[nH]c(=O)c3c2-c2ccccc2)cc1 [Example 38, 4-(2-Amino-4-oxo-5-phenyl-4,7-dihydro-3H-pyrrolo[2,3-d]pyrimidin-6-yl)-N,N-dimethylbenzene sulfonamide]
IC50 [1]: 100 to 500 nM | IC50 [2]: 100 to 500 nM | IC50 [3]: 500 to 1000 nM

CN(C)S(=O)(=O)c1ccc(-c2[nH]c3nc(N)[nH]c(=O)c3c2-c2cccc3c2OC(F)(F)O3)cc1 [Example 12, 4-(2-Amino-5-(2,2-difluorobenzo[d] [1,3]dioxol-4-yl)-4-oxo-4,7-dihydro-3H-pyrrolo[2,3-d]pyrimidin-6-yl)-N,N-dimethylbenzene sulfonamide]
IC50 [1]: > 2500 nM | IC50 [2]: > 2500 nM | IC50 [3]: 1000 to 2500 nM

CN(C)S(=O)(=O)c1ccc(-c2[nH]c3nc(N)[nH]c(=O)c3c2-c2cccc3c2OCC(=O)N3)cc1 [Example 48, 4-(2-Amino-4-oxo-5-(3-oxo-3,4-dihydro-2H-benzo[b][1,4]oxazin-8-yl)-4,7-dihydro-3H-pyrrolo[2,3-d]pyrimidin-6-yl)-N,N-dimethylbenzenesulfonamide]
IC50 [1]: 100 to 500 nM | IC50 [2]: 100 to 500 nM | IC50 [3]: > 2500 nM

CN(C)S(=O)(=O)c1ccc(-c2[nH]c3nc(N)[nH]c(=O)c3c2-c2cnn(Cc3cccnc3)c2)cc1 [Example 29, 4-(2-Amino-4-oxo-5-(1-(pyridin-3-ylmethyl)-1H-pyrazol-4-yl)-4,7-dihydro-3H-pyrrolo[2,3-d]pyrimidin-6-yl)-N,N-dimethylbenzene sulfonamide]
IC50 [1]: > 2500 nM | IC50 [2]: > 2500 nM | IC50 [3]: > 2500 nM

COc1ccccc1-c1c(-c2ccc(C(=O)N3CCOCC3)cc2)[nH]c2nc(N)[nH]c(=O)c12 [Example 54, 2-Amino-5-(2-methoxyphenyl)-6-(4-(morpholine-4-carbonyl)phenyl)-3,7-dihydro-4H-pyrrolo[2,3-d]pyrimidin-4-one]
IC50 [1]: 500 to 1000 nM | IC50 [2]: 500 to 1000 nM | IC50 [3]: > 2500 nM

COc1ccc(C)cc1-c1c(-c2ccc(S(=O)(=O)N(C)C)cc2)[nH]c2nc(N)[nH]c(=O)c12 [Example 66, 4-(2-Amino-5-(2-methoxy-5-methylphenyl)-4-oxo-4,7-dihydro-3H-pyrrolo[2,3-d]pyrimidin-6-yl)-N,N-dimethylbenzenesulfonamide]
IC50 [1]: 100 to 500 nM | IC50 [2]: 100 to 500 nM | IC50 [3]: > 2500 nM
